# Data: patent publication US6737383B1, “Herbicidal oxadiazolidines” (priority 1999, dated 2004)
# Assays:
# pigweed = test: Test B pre/postemergence pigweed; type: in vivo, Amaranthus retroflexus
# Method in brief: (§1)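 Herbicidal effect was estimated by eye on a ten-point control scale after plants spent twelve to sixteen days in a greenhouse following soil or foliar treatment. Foliar sprays targeted plants at one to four leaves; all doses were formulated in a non-phytotoxic solvent with surfactant.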
# crabgrass = test: Test B pre/postemergence crabgrass; type: in vivo, Digitaria sanguinalis
# Method in brief: as §1
# rice = test: Test B flood test rice; type: in vivo, Oryza sativa
# Method in brief: (§2)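 Each value is a visual injury score relative to controls, with 10 meaning complete control and 0 no effect. Evaluation took place twelve to sixteen days after the 2-leaf-stage plants were treated and kept in the greenhouse.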
# giant foxtail = test: Test B pre/postemergence giant foxtail; type: in vivo, Setaria faberii
# Method in brief: as §1
# wheat = test: Test B pre/postemergence wheat; type: in vivo, Triticum aestivum
# Method in brief: as §1
# bedstraw = test: Test B pre/postemergence bedstraw; type: in vivo, Galium aparine
# Method in brief: as §1
# velvetleaf = test: Test B pre/postemergence velvetleaf; type: in vivo, Abutilon theophrasti
# Method in brief: as §1
# purple nutsedge = test: Test B pre/postemergence purple nutsedge; type: in vivo, Cyperus rotundus
# Method in brief: as §1
# rape = test: Test B pre/postemergence rape; type: in vivo, Brassica napus
# Method in brief: as §1
# surinam grass = test: Test B pre/postemergence surinam grass; type: in vivo, Brachiaria decumbens
# Method in brief: as §1
# wild oat = test: Test B pre/postemergence wild oat; type: in vivo, Avena fatua
# Method in brief: as §1
# soybean = test: Test B pre/postemergence soybean; type: in vivo, Glycine max
# Method in brief: as §1
# morningglory = test: Test B pre/postemergence morningglory; type: in vivo, Ipomoea hederacea
# Method in brief: as §1
# corn = test: Test B pre/postemergence corn; type: in vivo, Zea mays
# Method in brief: as §1
# duck salad = test: Test B flood test duck salad; type: in vivo, Heteranthera limosa
# Method in brief: as §2
# blackgrass = test: Test B pre/postemergence blackgrass; type: in vivo, Alopecurus myosuroides
# Method in brief: as §1
# [1] = Postemergence, Rate 125 g/ha, scale of 0 to 10 where 0 is no effect and 10 is complete control
# [2] = Preemergence, Rate 62 g/ha, scale 0 to 10 (0 no effect, 10 complete control)
# [3] = Preemergence, Rate 125 g/ha, 0 is no effect, 10 is complete control
# [4] = Preemergence, Rate 250 g/ha, scale 0 to 10, 0 is no effect, 10 is complete control
# [5] = Preemergence, Rate 500 g/ha, scale 0 to 10 (0 no effect, 10 complete control)
# [6] = Rate 62 g/ha, Postemergence, scale of 0 to 10 where 0 is no effect and 10 is complete control
# [7] = Rate 250 g/ha, Postemergence, scale 0 to 10, 0 is no effect, 10 is complete control
# [8] = Rate 500 g/ha, Postemergence, scale 0 to 10
# [9] = Postemergence (flood test species), Rate 125 g/ha, scale of 0 to 10 where 0 is no effect and 10 is complete control
# [10] = Rate 31 g/ha, Postemergence section (flood test species), scale 0 to 10
# [11] = Rate 62 g/ha, Postemergence section, flood test species, scale of 0 to 10 where 0 is no effect and 10 is complete control
# [12] = Rate 250 g/ha, Postemergence (flood test), scale 0 to 10, 0 is no effect, 10 is complete control
compound,measurement,setting,value
CC(C)N(C(=O)n1oc(=O)n(C)c1=O)c1ccc(F)cc1 [Compound 138],Redroot pigweed plant response rating,pigweed; [1],5
same,Redroot pigweed plant response rating,pigweed; [2],9
same,Redroot pigweed plant response rating (0 to 10 scale),pigweed; [3],10
same,Redroot pigweed plant response rating,pigweed; [4],10
same,Redroot pigweed plant response rating,pigweed; [5],10
same,Redroot pigweed plant response rating,pigweed; [6],3
same,"Plant response rating, Redroot pigweed",pigweed; [7],7
same,Redroot pigweed plant response rating,pigweed; [8],8
same,Crabgrass plant response rating,crabgrass; [1],9
same,Crabgrass plant response rating,crabgrass; [2],9
same,Crabgrass plant response rating (0 to 10 scale),crabgrass; [3],9
same,Crabgrass plant response rating,crabgrass; [4],10
same,Crabgrass plant response rating,crabgrass; [5],10
same,Crabgrass plant response rating,crabgrass; [6],8
same,"Plant response rating, Crabgrass",crabgrass; [7],9
same,Crabgrass plant response rating,crabgrass; [8],9
same,Rice plant response rating,rice; [9],7
same,Rice plant response rating,rice; [10],0
same,Rice plant response rating,rice; [11],0
same,"Plant response rating, Rice",rice; [12],8
same,Giant foxtail plant response rating,giant foxtail; [1],9
same,Giant foxtail plant response rating,giant foxtail; [2],7
same,Giant foxtail plant response rating (0 to 10 scale),giant foxtail; [3],9
same,Giant foxtail plant response rating,giant foxtail; [4],10
same,Giant foxtail plant response rating,giant foxtail; [5],10
same,Giant foxtail plant response rating,giant foxtail; [6],9
same,"Plant response rating, Giant foxtail",giant foxtail; [7],9
same,Giant foxtail plant response rating,giant foxtail; [8],9
same,Wheat plant response rating,wheat; [1],8
same,Wheat plant response rating,wheat; [2],3
same,Wheat plant response rating (0 to 10 scale),wheat; [3],5
same,Wheat plant response rating,wheat; [4],6
same,Wheat plant response rating,wheat; [5],9
same,Wheat plant response rating,wheat; [6],3
same,"Plant response rating, Wheat",wheat; [7],8
same,Wheat plant response rating,wheat; [8],8
same,Bedstraw plant response rating,bedstraw; [1],7
same,Bedstraw plant response rating,bedstraw; [2],5
same,Bedstraw plant response rating (0 to 10 scale),bedstraw; [3],7
same,Bedstraw plant response rating,bedstraw; [4],10
same,Bedstraw plant response rating,bedstraw; [5],10
same,Bedstraw plant response rating,bedstraw; [6],2
same,"Plant response rating, Bedstraw",bedstraw; [7],8
same,Bedstraw plant response rating,"bedstraw; Rate 500 g/ha, Postemergence, scale 0 to 10, 0 no effect, 10 complete control",9
same,Velvetleaf plant response rating,velvetleaf; [1],4
same,Velvetleaf plant response rating,velvetleaf; [2],5
same,Velvetleaf plant response rating (0 to 10 scale),velvetleaf; [3],8
same,Velvetleaf plant response rating,velvetleaf; [4],10
same,Velvetleaf plant response rating,velvetleaf; [5],10
same,Velvetleaf plant response rating,velvetleaf; [6],2
same,"Plant response rating, Velvetleaf",velvetleaf; [7],4
same,Velvetleaf plant response rating,velvetleaf; [8],7
same,Nutsedge plant response rating,purple nutsedge; [1],5
same,Nutsedge plant response rating,purple nutsedge; [2],2
same,Nutsedge plant response rating (0 to 10 scale),purple nutsedge; [3],5
same,Nutsedge plant response rating,purple nutsedge; [4],7
same,Nutsedge plant response rating,purple nutsedge; [5],7
same,Nutsedge plant response rating,purple nutsedge; [6],4
same,"Plant response rating, Nutsedge",purple nutsedge; [7],6
same,Rape plant response rating,rape; [1],0
same,Rape plant response rating,rape; [2],7
same,Rape plant response rating (0 to 10 scale),rape; [3],9
same,Rape plant response rating,rape; [4],10
same,Rape plant response rating,rape; [5],10
same,Rape plant response rating,rape; [6],0
same,"Plant response rating, Rape",rape; [7],2
same,Rape plant response rating,rape; [8],7
same,B. signalgrass plant response rating,surinam grass; [1],7
same,B. signalgrass plant response rating,surinam grass; [2],2
same,B. signalgrass plant response rating (0 to 10 scale),surinam grass; [3],4
same,B. signalgrass plant response rating,surinam grass; [4],6
same,B. signalgrass plant response rating,surinam grass; [5],9
same,B. signalgrass plant response rating,surinam grass; [6],5
same,"Plant response rating, B. signalgrass",surinam grass; [7],8
same,B. signalgrass plant response rating,"surinam grass; Rate 500 g/ha, Postemergence, scale of 0 to 10 where 0 is no effect and 10 is complete control",8
same,Wild oats plant response rating,wild oat; [1],2
same,Wild oats plant response rating,wild oat; [2],5
same,Wild oats plant response rating (0 to 10 scale),wild oat; [3],9
same,Wild oats plant response rating,wild oat; [5],10
same,Wild oats plant response rating,wild oat; [6],0
same,"Plant response rating, Wild oats",wild oat; [7],3
same,Wild oats plant response rating,wild oat; [8],8
same,Soybean plant response rating,soybean; [1],3
same,Soybean plant response rating,soybean; [2],0
same,Soybean plant response rating (0 to 10 scale),soybean; [3],4
same,Soybean plant response rating,soybean; [4],5
same,Soybean plant response rating,soybean; [5],8
same,Soybean plant response rating,soybean; [6],2
same,"Plant response rating, Soybean",soybean; [7],4
same,Soybean plant response rating,soybean; [8],4
same,Morningglory plant response rating,morningglory; [1],5
same,Morningglory plant response rating,morningglory; [2],0
same,Morningglory plant response rating (0 to 10 scale),morningglory; [3],0
same,Morningglory plant response rating,morningglory; [4],3
same,Morningglory plant response rating,morningglory; [5],4
same,Morningglory plant response rating,morningglory; [6],5
same,"Plant response rating, Morningglory",morningglory; [7],6
same,Morningglory plant response rating,morningglory; [8],10
same,Corn plant response rating,corn; [1],4
same,Corn plant response rating,corn; [2],0
same,Corn plant response rating (0 to 10 scale),corn; [3],3
same,Corn plant response rating,corn; [4],8
same,Corn plant response rating,corn; [5],9
same,Corn plant response rating,corn; [6],0
same,"Plant response rating, Corn",corn; [7],7
same,Corn plant response rating,corn; [8],7
same,Ducksalad plant response rating,duck salad; [9],0
same,Ducksalad plant response rating,duck salad; [10],0
same,Ducksalad plant response rating,duck salad; [11],0
same,"Plant response rating, Ducksalad",duck salad; [12],2
same,Blackgrass plant response rating,blackgrass; [1],9
same,Blackgrass plant response rating,blackgrass; [2],9
same,Blackgrass plant response rating (0 to 10 scale),blackgrass; [3],9
same,Blackgrass plant response rating,blackgrass; [4],9
same,Blackgrass plant response rating,blackgrass; [5],9
same,Blackgrass plant response rating,blackgrass; [6],7
same,"Plant response rating, Blackgrass",blackgrass; [7],9
same,Blackgrass plant response rating,blackgrass; [8],9
